US10379016B1, “Apparatus for inoculating agar plate” (priority 2018, dated 2019)

System: S. aureus strain ATCC 29213
Assay: Antimicrobial susceptibility test by disc diffusion method (zone of inhibition)
Format: cell-based
Details: microbial concentration 1 × 10^8 CFU/ml, 35-37° C., 18-20 h, NZI = No zone of inhibition; for Testing for zone of inhibition; Method of Inoculation: Swabbing: Mueller-Hinton agar plate inoculated by cotton swab; for Testing for zone of inhibition; Method of Inoculation: Apparatus, Double actuation / Testing for zone of inhibition; Method of Inoculation: Apparatus, Single actuation: Mueller-Hinton agar plate spray-inoculated with apparatus
Protocol: In an experiment, Mueller-Hinton Agar plates were prepared. Forty grams of Mueller-Hinton Agar (MHA) was suspended in 1 liter distilled water and then boiled to dissolve the powder completely. The medium was sterilized by autoclaving at 121° C. for 15 min. After autoclaving, the medium was cooled to 45° C. and poured 25 mL molten agar into sterile 90 mm diameter Petri dishes (petri plates) to give a depth of about 4 mm. The surface of the agar was dried to remove excess moisture before use.
The suspension density was measured by using an UV spectrophotometer. The density of the suspension was adjusted to McFarland 0.5 by addition of saline or more organisms. The number of colony forming units (CFU/ml) in the culture samples plays an important role in the incubation of the agar plates. For colony isolation, diluted microbial suspension (about 1-2×10^3 CFU/ml) can be sprayed over agar plate.
For comparison, some agar plates were inoculated by cotton swab. A sterile cotton swab was dipped into the bacterial suspension (1-2×10^8 CFU/ml) and the excess fluid removed by turning the swab against the inside of the tube to avoid over-inoculation of plates. The inoculum was spread evenly over the entire surface of the agar plate by swabbing in three directions.
Other agar plates were inoculated by using the present apparatus. The agar plates were inoculated with inoculum of bacterial suspension (1-2×10^8 CFU/ml). The bacterial suspension was filled in the reservoir of the present apparatus and then sprayed uniformly using the atomizer over an agar plate held inside the spray chamber using the atomizer.
Antimicrobial susceptibility tests of the S. aureus strain ATCC 29213 was determined by the disc diffusion method according to the recommendations and guidelines of Clinical Laboratory Standard Institutes (CLSI M100-S24; 2014). A panel of commercial antibiotic discs comprising Gentamicin (GM), Amikacin (AN), Chloramphenicol (C), Imipenem (IPM), Tetracycline (TE), Cefepime (FEP), Sulfamethoxazole/trimethoprim (SXT), Aztreonam (ATM) was used for susceptibility testing. All commercial antibiotic discs were purchased from BBL (Becton Dickinson, USA).
The predetermined panel of antimicrobial disks was applied firmly on the surface of inoculated Mueller-Hinton agar media by using a disc dispenser device.
Within 15 min of application of antimicrobial disks, the plates were inverted and incubated aerobically at 35-37° C. for 18-20 h.
After incubation, inhibition zones were read at the point where no obvious growth is detected by the unaided eye when the plate was held about 30 cm from the eye. The inhibition zone diameters were measured to the nearest millimeter with a ruler. The plates were read from the back of the plate with reflected light against a dark background. Zone diameters of antibiotics in swab inoculated plate were compared with zone diameter in apparatus-inoculated plates.

Compound	Testing for zone of inhibition; Method of Inoculation: Swabbing	Testing for zone of inhibition; Method of Inoculation: Apparatus, Double actuation	Testing for zone of inhibition; Method of Inoculation: Apparatus, Single actuation
NCC[C@H](O)C(=O)N[C@@H]1C[C@H](N)[C@@H](O[C@H]2O[C@H](CN)[C@@H](O)[C@H](O)[C@H]2O)[C@H](O)[C@H]1O[C@H]1O[C@H](CO)[C@@H](O)[C@H](N)[C@H]1O [AN, Amikacin]	22 mm	23 mm	26 mm
CN(C)[C@@H]1C(O)=C(C(N)=O)C(=O)[C@@]2(O)C(O)=C3C(=O)c4c(O)cccc4[C@@](C)(O)[C@H]3C[C@@H]12 [TE, Tetracycline]	22 mm	24 mm	25 mm
C[C@H]1[C@H](NC(=O)/C(=N\OC(C)(C)C(=O)O)c2csc(N)n2)C(=O)N1S(=O)(=O)O [ATM, Aztreonam]	NZI	NZI	NZI
Gentamicin [GM]	21 mm	22 mm	22 mm
CO/N=C(\C(=O)N[C@@H]1C(=O)N2C(C(=O)[O-])=C(C[N+]3(C)CCCC3)CS[C@H]12)c1csc(N)n1 [FEP, Cefepime]	NZI	NZI	NZI
C[C@@H](O)[C@H]1C(=O)N2C(C(=O)O)=C(SCCN=CN)C[C@H]12 [IPM, Imipenem]	38 mm	38 mm	38 mm
O=C(N[C@H](CO)[C@H](O)c1ccc([N+](=O)[O-])cc1)C(Cl)Cl [C, Chloramphenicol]	21 mm	22 mm	22 mm
